Assays:
[1] = Solubility of benzoyl peroxide, judged by eye (crystals disappear or stay at the bottom); type: physicochemical
Procedure: In embodiments described herein, the solubility of benzoyl peroxide is increased. The composition of benzoyl peroxide and Hest G-18-0 is transparent. Solubility is measured by visualizing whether the solid crystalline form of benzoyl peroxide disappears in the liquid or if it can be seen at the bottom of the solution in an undissolved crystalline form.

[2] = cited from earlier work
skin of the forearm = conditions: in vivo

| erythema of the skin (skin of the forearm) | Molecule | solubility of benzoyl peroxide in Hest G-18-0 ([1]; 5% benzoyl peroxide in 100% Hest G-18-0, visual, FIG. 1 right beaker) | solubility of benzoyl peroxide in ethoxydiglycol ([1]; 5% benzoyl peroxide in 100% ethoxydiglycol, visual, FIG. 1 left beaker) | solubility of benzoyl peroxide in water ([2]; at 25° C.) [ppm] | solubility in common cosmetic solvents ([2]; ethanol, glycerin, propylene glycol, or butylene glycol) |
| --- | --- | --- | --- | --- | --- |
| – | O=C(OOC(=O)c1ccccc1)c1ccccc1 [benzoyl peroxide, Benzoyl peroxide] | completely dissolved | insolubility | 9.1 | practically insoluble |
| greatly reduced | Glycereth-18 ethylhexanoate [Hest G-18-0] | – | – | – | – |

Reference: patent US10722488B2, “Hest G-18-0 and benzoyl peroxide compositions and methods for using the same” (RODAN & FIELDS, LLC, priority 2016, dated 2020)
